Results on twelve compounds are retold here after PubChem BioAssay (NCI).

Some test systems named below: 786-0 renal; COLO 205 colon; EKVX NSCLC; HCC-2998 colon; HOP-92 NSCLC; IGROV1 ovarian; MOLT-4 leukemia; NCI/ADR-RES ovarian; SF-295 CNS; SR leukemia.
Holding throughout (assay): DTP human tumour cell line panel, 48 h

Several values for one entry are separate records, joined by “and”; a condition that tells them apart may be missing. Identical values can stand only once.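 Each compound was tested at five concentrations against cells in 96-well plates for 48 hours. GI50 = concentration required for 50% inhibition of growth. The concentration for full growth arrest is given as TGI.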 *1 amine or outer side, *2 acyl side, *3 side chain or, on linkers, in order; H or OH if unused. Where a SMILES comes first, the peptide text is derived from it. [ ]: non-standard residue; d: D form. X56 = CC[C@H](C)[C@H](OC(=O)[C@@H](C)[C@@H](CC)N[*:1])C(=O)[*:2]; X32 = C[C@H](N[*:1])C(=O)C(C)(C)C(=O)[*:2]; NMeY = CN[C@@H](Cc1ccc(O)cc1)C(=O)O; NMeL = CN[C@@H](CC(C)C)C(=O)O; NMeV = CN[C@H](C(=O)O)C(C)C Bounds are passed on as bounds.

The GI50 is the concentration that inhibits growth by half. The term TGI denotes the concentration at which net growth stops. Low values mean greater sensitivity of the cells, high ones lower sensitivity of the cells. For `COc1cc(OC)c(C(=O)/C=C/c2cccc(OC(C)=O)c2)cc1CC=C(C)C`, the GI50 in the test with 786-0 renal is 9.85 µM; in the test on COLO 205 colon, 6.96 µM; in the test on EKVX NSCLC, 30.2 µM; in the test on HCC-2998 colon, 8.87 µM; in the test on HOP-92 NSCLC, 8.52 µM; with IGROV1 ovarian, 15.9 µM. In addition, the GI50 in the test with MOLT-4 leukemia was 7.64 µM; in the test on NCI/ADR-RES ovarian it was 7.62 µM; in the test with SF-295 CNS, 11.9 µM; with SR leukemia, 1.74 µM. Besides, the TGI was 19.8 µM in the test with 786-0 renal; 14.2 µM in the test on COLO 205 colon; greater than 50 µM with EKVX NSCLC; 16.2 µM in the test on HCC-2998 colon; 39.8 µM in the test on HOP-92 NSCLC; greater than 50 µM in the test on IGROV1 ovarian. Also, the TGI was 43.6 µM in the test on MOLT-4 leukemia, 31.3 µM with NCI/ADR-RES ovarian, greater than 50 µM with SF-295 CNS and 16.1 µM with SR leukemia.

`NC(=O)c1ccc2nc3c(n2c1)C(=O)C(=O)c1ccccc1-3`: the GI50 was 1.63 µM in the test on 786-0 renal; 1.91 µM in the test on COLO 205 colon; 1.65 µM with EKVX NSCLC; 1.6 µM in the test on HCC-2998 colon; 1.77 µM with HOP-92 NSCLC; 1.63 µM with IGROV1 ovarian. In addition, the GI50 with MOLT-4 leukemia was 1.02 µM; in the test with NCI/ADR-RES ovarian, 1.88 µM; with SF-295 CNS it was 1.67 µM; in the test on SR leukemia, 0.488 µM. Besides, the TGI with 786-0 renal turned out to be 2.99 µM; in the test with COLO 205 colon it was 3.82 µM; with EKVX NSCLC it was 3.01 µM; in the test with HCC-2998 colon it was 3.13 µM; with HOP-92 NSCLC, 3.33 µM; in the test on IGROV1 ovarian it was 3.34 µM. For the same compound, the TGI in the test with MOLT-4 leukemia is 4.21 µM; in the test with NCI/ADR-RES ovarian, 6.19 µM; in the test with SF-295 CNS, 3.07 µM; with SR leukemia, 3.86 µM.

For `COc1ccc2c(c1)/C(=N/OC(C)=O)c1c-2c(=O)[nH]c2ccccc12`, the GI50 in the test on 786-0 renal was 15.9 µM; with COLO 205 colon, 12.2 µM; in the test with EKVX NSCLC, 6.38 µM; with HCC-2998 colon it was 3.29 µM; in the test with HOP-92 NSCLC it was 11.1 µM; in the test on IGROV1 ovarian it was 1.52 µM. Moreover, the GI50 was 4.28 µM in the test with MOLT-4 leukemia, 2.83 µM in the test with NCI/ADR-RES ovarian, 18.1 µM with SF-295 CNS and 6.63 µM in the test on SR leukemia. For the same compound, the concentration for total growth inhibition (TGI) was 43.6 µM with 786-0 renal; 31.7 µM in the test with COLO 205 colon; 21.6 µM in the test with EKVX NSCLC; 13.5 µM with HCC-2998 colon; 38.3 µM in the test on HOP-92 NSCLC; 11.8 µM in the test on IGROV1 ovarian. Besides, the TGI with MOLT-4 leukemia is 24.6 µM; in the test on NCI/ADR-RES ovarian, 17.9 µM; with SF-295 CNS, 48 µM; with SR leukemia it was 33.1 µM.

As to `N#C/C(=C\c1ccc(Br)cc1)n1nnc2ccccc21`, the GI50 was 0.501 µM with 786-0 renal; 0.591 µM in the test with COLO 205 colon; 1.41 µM in the test with EKVX NSCLC; 1.51 µM with HCC-2998 colon; 0.23 µM with HOP-92 NSCLC; 0.317 µM in the test on IGROV1 ovarian. Moreover, the GI50 was 1.48 µM in the test on MOLT-4 leukemia, 0.323 µM in the test with NCI/ADR-RES ovarian, 1.18 µM with SF-295 CNS and 0.144 µM with SR leukemia. Moreover, the concentration for total growth inhibition (TGI) is 1.79 µM in the test on 786-0 renal; 3.22 µM in the test with COLO 205 colon; 7.48 µM in the test with EKVX NSCLC; 3.34 µM with HCC-2998 colon; 1.58 µM in the test on HOP-92 NSCLC; 1.43 µM in the test with IGROV1 ovarian. Further, the concentration for total growth inhibition (TGI) with MOLT-4 leukemia was determined as 11.4 µM; in the test with NCI/ADR-RES ovarian it was 11 µM; in the test on SF-295 CNS, 8.9 µM; in the test on SR leukemia, 14.6 µM.

For `O=C(Nc1ccccc1)Nc1cccc(Oc2nnc(Cl)c3ccccc23)c1`, the GI50 in the test with 786-0 renal was 3.6 µM; in the test with COLO 205 colon it was 5.24 µM; with EKVX NSCLC, 2.31 µM; in the test on HCC-2998 colon it was 4.2 µM; in the test with HOP-92 NSCLC, 3.09 µM; in the test with IGROV1 ovarian, 3.32 µM. For the same compound, the GI50 with MOLT-4 leukemia is 2.6 µM; in the test with NCI/ADR-RES ovarian it was 2.63 µM; with SF-295 CNS, 2.07 µM; in the test with SR leukemia, 1.93 µM. The total growth inhibition concentration (TGI) in the test on 786-0 renal is 8.18 µM; in the test on COLO 205 colon it was greater than 25 µM; in the test with EKVX NSCLC it was 12.1 µM; in the test with HCC-2998 colon, 12.2 µM; in the test on HOP-92 NSCLC, 11.3 µM; in the test on IGROV1 ovarian, 7.92 µM. For the same compound, the TGI was 11.4 µM in the test with MOLT-4 leukemia, 6.39 µM in the test on NCI/ADR-RES ovarian, 5.63 µM in the test on SF-295 CNS and 8.26 µM in the test on SR leukemia.

For `CCNCCCn1c2c(c3ccc([N+](=O)[O-])cc3c1=O)C(=O)c1cc(OC)cnc1-2`, the GI50 was 0.0406 µM with 786-0 renal; 0.0874 µM in the test with COLO 205 colon; 0.204 µM with EKVX NSCLC; 0.151 µM in the test on HCC-2998 colon; 0.471 µM with HOP-92 NSCLC; 0.184 µM with IGROV1 ovarian. The GI50 in the test with MOLT-4 leukemia is 0.029 µM; with NCI/ADR-RES ovarian it was 0.0559 µM; with SF-295 CNS it was 0.0421 µM. The concentration for total growth inhibition (TGI) is 0.31 µM with 786-0 renal; 1.67 µM in the test with COLO 205 colon; 1.27 µM with EKVX NSCLC; 0.66 µM in the test on HCC-2998 colon; 17.4 µM with HOP-92 NSCLC; 1.45 µM with IGROV1 ovarian. Also, the concentration for total growth inhibition (TGI) in the test on MOLT-4 leukemia is 0.25 µM; with NCI/ADR-RES ovarian it was 0.689 µM; with SF-295 CNS, 0.496 µM; with SR leukemia, 1.27 µM.

On to `COc1ccc(-c2cc(=O)c3c(OC)c(OC)c(OC)c(OC)c3o2)c(OC)c1`, for which the TGI with 786-0 renal was greater than 100 µM; in the test on COLO 205 colon, 34.3 µM; in the test with EKVX NSCLC, greater than 100 µM; in the test on HCC-2998 colon, 46.6 µM; in the test on HOP-92 NSCLC, 55.3 µM; in the test on IGROV1 ovarian, greater than 100 µM. The concentration for total growth inhibition (TGI) in the test with MOLT-4 leukemia is 86.1 µM; in the test on NCI/ADR-RES ovarian, 67.3 µM; with SF-295 CNS, 46 µM; in the test on SR leukemia it was greater than 100 µM.

As to `Cc1cc(N(CCCl)CCCl)ccc1/C=N/NC(=O)Cc1cc(=O)oc2cc(O)ccc12`, the TGI with 786-0 renal is 59.7 µM; in the test on COLO 205 colon it was 36.7 µM; in the test with EKVX NSCLC, 82.9 µM; in the test on HCC-2998 colon it was 72 µM; in the test on HOP-92 NSCLC it was greater than 100 µM; with IGROV1 ovarian, 40.7 µM. Further, the TGI with MOLT-4 leukemia is 50.4 µM; in the test on NCI/ADR-RES ovarian, greater than 100 µM; with SF-295 CNS, 50.8 µM; with SR leukemia, greater than 100 µM.

`COc1ccc2c(c1)/C(=C/c1cc(OC)c(OC)c(OC)c1)C(=O)N2C`: the GI50 with 786-0 renal is 3.82 µM; with COLO 205 colon, 1.83 µM; in the test on EKVX NSCLC it was 5.1 µM; in the test on HCC-2998 colon, 9.39 µM; with HOP-92 NSCLC it was 3.01 µM; in the test on IGROV1 ovarian it was 1.9 µM. Also, the GI50 in the test with MOLT-4 leukemia is 1.89 µM; with NCI/ADR-RES ovarian, 3.37 µM; in the test on SF-295 CNS, 2.78 µM; in the test on SR leukemia it was 0.634 µM. Further, the TGI in the test on 786-0 renal is 23.7 µM; with COLO 205 colon, 3.68 µM; in the test with EKVX NSCLC, greater than 100 µM; with HCC-2998 colon, greater than 56.1 µM; in the test with HOP-92 NSCLC, greater than 100 µM; in the test with IGROV1 ovarian, 5.31 µM. Also, the total growth inhibition concentration (TGI) in the test with MOLT-4 leukemia is 7.56 µM; in the test with NCI/ADR-RES ovarian it was greater than 39.7 µM; in the test on SF-295 CNS it was greater than 100 µM; with SR leukemia, 3.28 µM.

On to `NS(=O)(=O)c1ccc(NC(=O)c2cccc3cc4ccccc4nc23)cc1`, for which the TGI with 786-0 renal, in the test on COLO 205 colon, with EKVX NSCLC, in the test on HCC-2998 colon, in the test with HOP-92 NSCLC and in the test on IGROV1 ovarian was greater than 100 µM each time. Further, the TGI is 68.4 µM in the test on MOLT-4 leukemia, greater than 100 µM in the test on NCI/ADR-RES ovarian, greater than 100 µM with SF-295 CNS and greater than 100 µM in the test on SR leukemia.

For `CC[C@H](C)[C@@H]1OC(=O)[C@@H](C)[C@@H](CC)NC(=O)[C@H](C)NC(=O)C(C)(C)C(=O)[C@H](C)NC(=O)[C@H](Cc2ccc(OC)cc2)N(C)C(=O)[C@H](C(C)C)N(C)C(=O)CNC(=O)[C@H](CC(C)C)N(C)C(=O)CNC1=O` (cyclo(A[X56]G[NMeL]G[NMeV][NMeY](Me)[X32])), the concentration for 50% growth inhibition (GI50) in the test on 786-0 renal is 0.0675 µM; in the test on COLO 205 colon, 0.034 µM; in the test on EKVX NSCLC, 0.0668 µM; in the test with HOP-92 NSCLC it was 0.0156 µM; in the test with IGROV1 ovarian it was 0.0193 µM; with MOLT-4 leukemia, 0.0807 µM. For the same compound, the concentration for 50% growth inhibition (GI50) in the test on SF-295 CNS was 0.0102 µM; in the test with SR leukemia, 0.063 µM. The total growth inhibition concentration (TGI) was 0.48 µM and 0.233 µM in the test on 786-0 renal; greater than 33.3 µM in the test on COLO 205 colon; 1.82 µM and 8.44 µM in the test with EKVX NSCLC; 3.94 µM with HCC-2998 colon; 0.238 µM and 0.0316 µM in the test on HOP-92 NSCLC; 0.306 µM and 0.102 µM in the test with IGROV1 ovarian. Besides, the TGI in the test with MOLT-4 leukemia was 0.784 µM; in the test with NCI/ADR-RES ovarian it was 9.92 µM; in the test with SF-295 CNS, 0.657 µM and 0.0793 µM; with SR leukemia, 1.06 µM and 0.6 µM.

Regarding `Cc1c(N=Cc2ccc(N(CCC#N)CCC#N)cc2)c(=O)n(-c2ccccc2)n1C`, the TGI was 90.3 µM in the test with 786-0 renal; greater than 100 µM in the test on COLO 205 colon; greater than 100 µM with EKVX NSCLC; greater than 100 µM in the test on HCC-2998 colon; 99 µM in the test with HOP-92 NSCLC; greater than 100 µM in the test with IGROV1 ovarian. The TGI is greater than 100 µM in the test with MOLT-4 leukemia, greater than 100 µM with NCI/ADR-RES ovarian, 71.6 µM with SF-295 CNS and greater than 100 µM with SR leukemia.
